Non-standard residues stand in square brackets, D forms with d. Residues, ends and D or L forms follow the SMILES beside them. pY = N[C@@H](Cc1ccc(OP(=O)(O)O)cc1)C(=O)O
Assays:
Assay in all cases: biochemical
Type in all cases: binding
GRB2 = target: T1, GRB2 (Homo sapiens, UniProt P62993)
T1 construct: the DNA-tagged SH2 domain concentrations used in this study were <0.1 nM; made in house; host or cells: HEK293 (transient transfection; unpurified extract)

FRK = target: T2, FRK (Homo sapiens, UniProt P42685); settings: dose-response; read-out: KD
T2 construct: the DNA-tagged SH2 domain concentrations used in this study were <0.1 nM; made in house; host or cells: HEK293 (transient transfection; unpurified extract)
T2 sequence (P42685 116-208 limits assumed): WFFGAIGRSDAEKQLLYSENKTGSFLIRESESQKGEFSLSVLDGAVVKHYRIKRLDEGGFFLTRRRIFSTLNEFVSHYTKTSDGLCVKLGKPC

CBLB = target: T3, CBLB (Homo sapiens, UniProt Q13191)
T3 construct: the DNA-tagged SH2 domain concentrations used in this study were <0.1 nM; made in house; host or cells: HEK293 (transient transfection; unpurified extract)
T3 sequence (Q13191 241-343 limits assumed): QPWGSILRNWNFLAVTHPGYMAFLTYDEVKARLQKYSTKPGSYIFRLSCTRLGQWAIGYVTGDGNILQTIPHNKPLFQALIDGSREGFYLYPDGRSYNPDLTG

CBLC = target: T4, CBLC (Homo sapiens, UniProt Q9ULV8)
T4 construct: the DNA-tagged SH2 domain concentrations used in this study were <0.1 nM; made in house; host or cells: HEK293 (transient transfection; unpurified extract)
T4 sequence (Q9ULV8 219-321 limits assumed): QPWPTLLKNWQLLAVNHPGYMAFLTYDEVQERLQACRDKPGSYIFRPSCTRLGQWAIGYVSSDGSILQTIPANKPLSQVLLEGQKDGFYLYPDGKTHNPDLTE

SH2B (SH2B1) = target: T5, SH2B (SH2B1) (Homo sapiens, UniProt Q9NRF2)
T5 construct: made in house; host or cells: HEK293 (transient transfection), unpurified extract

SHB = target: T6, SHB (Homo sapiens, UniProt Q15464)
T6 construct: made in house; host or cells: HEK293 (transient transfection), unpurified extract
T6 sequence (Q15464 whole entry): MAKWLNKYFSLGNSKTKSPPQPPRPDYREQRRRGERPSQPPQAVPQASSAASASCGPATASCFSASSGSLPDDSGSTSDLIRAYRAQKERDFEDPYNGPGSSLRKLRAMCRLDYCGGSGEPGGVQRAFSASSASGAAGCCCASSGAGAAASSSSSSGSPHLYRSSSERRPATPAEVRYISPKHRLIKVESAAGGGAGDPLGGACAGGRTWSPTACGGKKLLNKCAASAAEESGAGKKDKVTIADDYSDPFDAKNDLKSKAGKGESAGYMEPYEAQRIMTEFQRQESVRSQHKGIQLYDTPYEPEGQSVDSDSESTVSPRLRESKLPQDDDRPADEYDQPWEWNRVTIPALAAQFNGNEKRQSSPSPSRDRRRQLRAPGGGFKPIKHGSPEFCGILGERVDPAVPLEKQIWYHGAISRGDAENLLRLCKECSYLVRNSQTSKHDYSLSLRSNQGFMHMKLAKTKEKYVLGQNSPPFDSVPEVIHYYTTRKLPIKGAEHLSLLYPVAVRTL

SH2D1B = target: T7, SH2D1B (Homo sapiens, UniProt O14796)
T7 construct: made in house; host or cells: HEK293 (transient transfection), unpurified extract
T7 sequence (O14796 1-132): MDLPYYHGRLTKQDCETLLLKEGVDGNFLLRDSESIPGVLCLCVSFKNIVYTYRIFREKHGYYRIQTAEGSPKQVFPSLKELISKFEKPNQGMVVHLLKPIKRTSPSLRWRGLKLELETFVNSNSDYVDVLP

GRAP = target: T8, GRAP (Homo sapiens, UniProt Q13588)
T8 construct: the DNA-tagged SH2 domain concentrations used in this study were <0.1 nM; made in house; host or cells: HEK293 (transient transfection; unpurified extract)
T8 sequence (Q13588 60-154 limits assumed): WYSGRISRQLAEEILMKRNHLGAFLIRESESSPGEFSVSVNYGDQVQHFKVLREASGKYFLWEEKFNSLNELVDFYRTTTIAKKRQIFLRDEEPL

SRMS = target: T9, SRMS (Homo sapiens, UniProt Q9H3Y6)
T9 construct: made in house; host or cells: HEK293 (transient transfection), unpurified extract
T9 sequence (Q9H3Y6 whole entry): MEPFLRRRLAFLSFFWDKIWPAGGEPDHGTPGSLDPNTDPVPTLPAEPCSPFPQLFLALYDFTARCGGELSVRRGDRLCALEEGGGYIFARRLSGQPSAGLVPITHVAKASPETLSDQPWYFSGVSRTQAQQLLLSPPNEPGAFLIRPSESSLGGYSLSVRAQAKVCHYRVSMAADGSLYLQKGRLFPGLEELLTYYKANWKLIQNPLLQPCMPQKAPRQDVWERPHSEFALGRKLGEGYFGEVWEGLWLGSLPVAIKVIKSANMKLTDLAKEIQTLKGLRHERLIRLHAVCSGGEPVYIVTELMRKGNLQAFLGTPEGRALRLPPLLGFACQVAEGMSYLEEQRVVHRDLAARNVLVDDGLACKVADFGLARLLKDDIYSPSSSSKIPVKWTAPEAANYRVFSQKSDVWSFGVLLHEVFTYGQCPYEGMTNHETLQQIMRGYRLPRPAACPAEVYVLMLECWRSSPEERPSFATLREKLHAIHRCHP

T1 sequence (P62993 60-152 limits assumed): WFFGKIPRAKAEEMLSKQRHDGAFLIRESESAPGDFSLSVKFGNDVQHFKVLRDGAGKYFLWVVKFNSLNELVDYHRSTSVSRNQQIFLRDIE

CC[C@H](C)[C@H](NC(=O)[C@H](Cc1ccc(OP(=O)(O)O)cc1)NC(=O)[C@H](CO)NC(C)=O)C(=O)N[C@@H](CC(N)=O)C(=O)N[C@H](C(=O)N1CCC[C@H]1C(=O)N[C@@H](Cc1ccccc1)C(=O)N[C@H](C(=O)N[C@@H](CO)C(N)=O)[C@@H](C)O)C(C)C (Ac-S[pY]INVPFTS-NH2)
Kd (GRB2): 69.4 ± 19.4 nM

CC[C@H](C)[C@H](NC(=O)[C@@H]1CCCN1C(=O)[C@@H](NC(=O)[C@H](CCC(=O)O)NC(=O)[C@H](CCC(=O)O)NC(=O)[C@H](Cc1ccc(OP(=O)(O)O)cc1)NC(=O)[C@H](CCC(N)=O)NC(=O)[C@@H]1CCCN1C(=O)[C@H](CCC(=O)O)NC(C)=O)[C@@H](C)CC)C(=O)N[C@@H](CCCCN)C(=O)N[C@@H](CCC(N)=O)C(N)=O (Ac-EPQ[pY]EEIPIKQ-NH2)
Kd (FRK): 6980 ± 1930 nM

CC(=O)N[C@@H](CCC(=O)O)C(=O)N[C@@H](CC(=O)O)C(=O)N[C@@H](CO)C(=O)N[C@@H](Cc1ccccc1)C(=O)N[C@@H](CC(C)C)C(=O)N[C@@H](CCC(N)=O)C(=O)N[C@@H](CCCNC(=N)N)C(=O)N[C@@H](Cc1ccc(OP(=O)(O)O)cc1)C(=O)N[C@@H](CO)C(=O)N[C@@H](CO)C(=O)N[C@@H](CC(=O)O)C(=O)N1CCC[C@H]1C(=O)N[C@H](C(N)=O)[C@@H](C)O [Ac-EDSFLQRpYSSDPT-NH2]
Kd (CBLB): 373 ± 114 nM
Kd (CBLC): 146 ± 52 nM

CC[C@H](C)[C@H](NC(=O)[C@H](CC(N)=O)NC(=O)[C@@H](NC(=O)[C@H](Cc1ccc(OP(=O)(O)O)cc1)NC(=O)[C@H](CCC(=O)O)NC(=O)CNC(=O)[C@@H]1CCCN1C(=O)[C@H](CO)NC(C)=O)C(C)C)C(=O)N[C@@H](CCC(=O)O)C(=O)N[C@@H](Cc1ccccc1)C(=O)NCC(N)=O [Ac-SPGEpYVNIEFG-NH2]
Kd (SH2B (SH2B1)): 4460 ± 615 nM
Kd (SHB): 6030 ± 1090 nM

CC[C@H](C)[C@H](NC(=O)[C@@H](NC(=O)[C@H](CC(C)C)NC(=O)[C@H](CO)NC(=O)[C@H](CCCCN)NC(C)=O)[C@@H](C)O)C(=O)N[C@@H](Cc1ccc(OP(=O)(O)O)cc1)C(=O)N[C@@H](C)C(=O)N[C@@H](CCC(N)=O)C(=O)N[C@H](C(=O)N[C@@H](CCC(N)=O)C(=O)N[C@@H](CCCCN)C(N)=O)C(C)C [Ac-KSLTIpYAQVQK-NH2] (Ac-KSLTI[pY]AQVQK-NH2)
Kd (SH2D1B): 0.14 ± 0.03 nM

CC(=O)N[C@@H](CCCCN)C(=O)N1CCC[C@H]1C(=O)N[C@@H](Cc1ccccc1)C(=O)N[C@@H](Cc1ccc(OP(=O)(O)O)cc1)C(=O)N[C@H](C(=O)N[C@@H](CC(N)=O)C(=O)N[C@H](C(=O)N[C@@H](CCC(=O)O)C(=O)N[C@@H](Cc1ccccc1)C(N)=O)C(C)C)C(C)C [Ac-KPFpYVNVEF-NH2] (Ac-KPF[pY]VNVEF-NH2)
Kd (GRAP): 21.3 ± 4.83 nM
Kd (SRMS): 23600 ± 3030 nM

Reference: PMC12951562, “SH2scan: Mapping SH2 Domain-Ligand Binding Selectivity for Inhibitors and Degraders” (Journal of Medicinal Chemistry, 2026)
